This note sets out measurements from PubChem BioAssay AID652 (University of Pittsburgh Molecular Library Screening Center, 2007).

In the first test the target is Gag-Pol polyprotein (Human immunodeficiency virus type 1 group M subtype B (isolate HXB2)) (UniProt P04585). Briefly: HIV-1 RT RNase H inhibitor potency, dose response, biochemical, probe assessment (AID 652). As to conditions: HIV-1 RT RNase H enzymatic assay.
The IC50 is the concentration needed to halve the response being measured. In the case of `N#CC1=C(N)SC(N)=C(C#N)C1c1ccnc2ccccc12`, the IC50 is 13.7 µM. On the same count and under the same terms, with `O=C(CSc1nc2c([nH]c3ccccc32)c(=O)n1-c1cccc(Cl)c1)N1CCOCC1` the figure was 23.4 µM; with `O=c1/c(=C/c2ccccn2)sc2nc3ccccc3n12`, 14.6 µM. Same read-out and setting: the figure for `CCCCCCn1c(SCC(=O)OC)nc2c1c(=O)[nH]c(=O)n2C` is 3.11 µM.

On to `CCOc1cc(C2C(C#N)=C(N)SC(N)=C2C#N)ccc1OCCN1CCOCC1`, for which the half-maximal inhibitory concentration (IC50) was 31.5 µM. The same measure, in the same setting: with `CCCCn1c(CN2C(=O)c3ccccc3C2=O)nc2ccccc2c1=O` the figure was 12.4 µM; with `O=S(=O)(/N=S1/CC=CCN1S(=O)(=O)c1ccccc1)c1ccccc1` (stereo not drawn), 4.33 µM. Still for that read-out and setting: with `C1=C(c2ccc(-c3ccccc3)cc2)Nc2ncnn2C1c1ccco1` (stereo not drawn) the figure was 14.5 µM; with `CSc1ccc(C2C(C#N)=C(N)Oc3c2ccc(=O)c2c(C)oc(C)c32)cc1` (stereo not drawn), 5.81 µM; with `COc1ccc(-n2nc3cc(C)c(NC(=O)CC(C)C)cc3n2)cc1`, 8.06 µM. Regarding `COc1ccc(C2C(C#N)=C(N)N3C(=C2C#N)Sc2ccccc23)cc1` (stereo not drawn), the concentration for half-maximal inhibition (IC50) was 3.35 µM. Consider `O=C(CCSCCC(=O)NCc1ccco1)NCc1ccco1`, for which the IC50 is 0.953 µM.

Staying with this test, now noted: HIV-1 RT RNase H enzymatic assay, inhibition, at 50 µM, stronger effect = higher value.
By inhibition is commonly meant the drop in the measured response relative to a control, in per cent. Take `COc1cccc(OC)c1-c1nn2c(-c3cc(-c4ccccc4)n[nH]3)nnc2s1`: the inhibition came out at 63.5%.

For the molecule `O=C(Nc1nc(-c2ccncc2)cs1)c1ccco1`, the inhibition is 87.1%. Regarding `N#Cc1c(N)nc(SCC(=O)NC2CCCCC2)c(C#N)c1-c1ccc(Cl)cc1`, the inhibition was found to be 64.2%.

Take `Nc1sc2c(c1C(=O)NC1CCS(=O)(=O)C1)CCC2` (stereo not drawn): the inhibition is 74.5%.

As to `CCCCC[C@H](O)/C=C/[C@H]1C=CC(=O)[C@@H]1C/C=C\CCCC(=O)O`, the inhibition was determined as 101%. Same read-out and setting: with `CC(C)CNC(=O)c1c(N)n(/N=C/c2ccccn2)c2nc3ccccc3nc12` the figure was 95%; with `O=c1/c(=C\c2cccn2-c2ccccc2)sc2nc3ccccc3n12`, 92%; with `COCCSc1ccccc1C(=O)Nc1cc(C)on1`, 65.1%.

As for `CN(C)c1ccc2c(c1)N=C(c1ccco1)OP2(=S)N1CCOCC1` (stereo not drawn), the inhibition worked out at 92.9%. Consider `CCC1CC2(C)NC(=O)c3c(sc4c3CC(C)(C)OC4)N2C1=O` (stereo not drawn), for which the inhibition was 82.8%. For the molecule `O=C1c2sc3nc4ccccc4n3c2C(=O)N1c1ccccc1Cl`, the inhibition came to 98.9%.

Consider `c1ccc(Cc2nn3c(Cn4cnc5ccccc54)nnc3s2)cc1`, for which the inhibition was determined as 91.2%. `CCOC(=O)c1sc(NC(=O)CSc2nnc(Cc3ccccc3)o2)c(C#N)c1C`: the inhibition was 98.3%.

For the molecule `Cc1ccc(-c2cc(C(=O)NC3=NCCS3)c3cc(Br)ccc3n2)o1`, the inhibition was 92.4%. On to `CN(c1ccccc1)c1ccc(/C=c2\s/c(=C(/C#N)C(=O)C(C)(C)C)n(Cc3ccco3)c2=O)cc1`, for which the inhibition was determined as 92.9%. On the same count and under the same terms, with `c1ccc2c(c1)nnn2Cc1nnc2sc(-c3ccncc3)nn12` the figure was 90.6%; with `Cc1cc(NC(=O)CSc2ccc(-c3nc4cc(C)c(C)cc4[nH]3)cn2)no1`, 83%; with `C=CCn1c(SCC(=O)c2ccc(O)c(O)c2)nnc1-c1ccccc1OC`, 97.5%.

For `COc1ccc(Cn2nnnc2C(c2cccnc2)N2CCN(c3ccc(O)cc3)CC2)cc1` (stereo not drawn), the inhibition was determined as 43%. The same measure, in the same setting: the figure for `COc1ccccc1-c1nnc2n1N=C(c1ccc(O)c(O)c1)CS2` is 97%; for `CCOC(=O)c1c(NC(=O)c2ccc(-n3cnnn3)cc2)sc2c1CCCC2` it is 88.3%.

With `CC1CCc2c(sc(NC(=O)c3ccc(Cn4cc(Br)cn4)o3)c2C(N)=O)C1` (stereo not drawn), the inhibition is 76.3%. Regarding `N#CC1=C(N)SC(N)=C(C#N)C1c1ccnc2ccccc12`, the inhibition is 70.4%. On the same count and under the same terms, the figure for `CN(C)c1cccc(C(=O)Nc2cccc(F)c2)c1` is 72%; for `COC(=O)N(c1ccc(OC)cc1)P1(=S)OCCC(C)O1` (stereo not drawn) it is 87.5%; for `c1ccc2[nH]c(SN3CCOCC3)nc2c1` it is 74.2%. For the molecule `Fc1ccc(-c2ccc(-c3nn4c(-c5ccco5)nnc4s3)o2)cc1`, the inhibition was 88%. On the same count and under the same terms, with `CC(C)(C)C1=Nn2c(nnc2-c2ccccn2)SC1` the figure was 80.5%; with `O=S(=O)(c1ccc(S(=O)(=O)N2CCN(C/C=C/c3ccccc3)CC2)cc1)N1CCCC1`, 96.9%.

As to `N#Cc1nc(-c2ccc(OCc3ccc(Cl)cc3)cc2)oc1NCc1cccnc1`, the inhibition was 99.4%. In the case of `c1ccc(Cc2nn3c(COc4ccccc4)nnc3s2)cc1`, the inhibition was determined as 86.8%. Take `CCCc1nnc(NC(=O)CN2C(=O)c3ccccc3S2(=O)=O)s1`: the inhibition came to 75.7%.

`Cc1cccc(NC(=O)Cn2c(C)c(C#N)c3ccccc32)c1C`: the inhibition was 89%. Turning to `COC(=O)N(c1ccccc1)P1(=S)OCCO1`, the inhibition turned out to be 81.9%. The same measure, in the same setting: the figure for `c1cncc(-c2nn3c(Cn4cnc5ccccc54)nnc3s2)c1` is 85.4%; for `CCOC(=O)C1CCCN(C(=O)Cn2sc3nc(C)cc(C)c3c2=O)C1` (stereo not drawn) it is 69.6%. Same read-out and setting: with `Cc1ccccc1NC(=O)CSc1nc2c(c(-c3ccco3)c1C#N)CCCC2` the figure was 97.2%. Still for that read-out and setting: the figure for `Cc1ccc(NC(=O)Cn2nnc(C(=O)Nc3ccc(C)c(C)c3)c2N)cc1` is 76.8%; for `COc1ccccc1N1CSC2=C(C#N)C(c3ccc(SC)cc3)CC(=O)N2C1` (stereo not drawn) it is 97.1%; for `Cc1cc(C)n2c(=S)[nH]nc2n1` it is 71.1%. On to `c1csc(-c2nn3c(C4COc5ccccc5O4)nnc3s2)c1` (stereo not drawn), for which the inhibition turned out to be 97.1%. On the same count and under the same terms, the figure for `O=C(CSc1nc2c([nH]c3ccccc32)c(=O)n1-c1cccc(Cl)c1)N1CCOCC1` is 82.5%; for `CC(=O)N(Cc1cc(=O)[nH]c2ccccc12)c1cccc(C)c1` it is 89.9%; for `O=C(CSc1nnnn1-c1ccccc1)Nc1nsc(-c2ccc(Cl)cc2)n1` it is 48.8%. Regarding `COc1cc(-c2nnc3sc(Cc4ccc(Cl)cc4)nn23)cc(OC)c1OC`, the inhibition was determined as 96.4%. For `COc1ccc(N2CCN(Cc3cc(=O)oc4cc(-c5ccccc5)c(O)cc34)CC2)cc1`, the inhibition came to 96.2%. For `N#Cc1c(SCC(=O)Nc2nccs2)nc2c(c1-c1ccco1)CCCC2`, the inhibition is 88.9%. Take `O=c1/c(=C/c2ccccn2)sc2nc3ccccc3n12`: the inhibition was 89.2%. On the same count and under the same terms, the figure for `COC(=O)c1ccccc1NC(=O)c1sc(=S)n(C)c1N` is 101%; for `O=C(NC1CCCCC1)c1sc(=S)n2c1[nH]c(=O)c1ccccc12` it is 96.5%; for `O=C(CCN1C(=O)c2ccccc2C1=O)Nc1ccc(-c2nc3ccccc3o2)cc1` it is 92.1%. Still for that read-out and setting: the figure for `CCCCCCn1c(SCC(=O)OC)nc2c1c(=O)[nH]c(=O)n2C` is 79.6%; for `c1ccc2c(c1)OCC(c1nnc3sc(-c4ccc5c(c4)OCO5)nn13)O2` (stereo not drawn) it is 97.2%; for `CCCc1nc2ccccc2c(=O)n1/N=C/c1ccc(O)c(O)c1` it is 97.3%. Take `C=CCSc1nc2c(c(=O)[nH]c(=O)n2C)n1C(C)C`: the inhibition came out at 60.6%. For the molecule `CCOc1cc(C2C(C#N)=C(N)SC(N)=C2C#N)ccc1OCCN1CCOCC1`, the inhibition is 41.5%. On the same count and under the same terms, with `CCCCn1c(CN2C(=O)c3ccccc3C2=O)nc2ccccc2c1=O` the figure was 98%; with `Cc1ccc(-n2c(N)c(C(N)=O)sc2=S)cc1`, 83.3%; with `CCOC(=O)c1sc(NC(=O)CSc2n[nH]c(-c3ccccc3)n2)c(C#N)c1C`, 101%. For the molecule `COc1ccc(OC)c(Nc2nc(-c3ccc(O)c(O)c3)cs2)c1`, the inhibition turned out to be 97.8%. Consider `COc1cc(-c2nnc3sc(-c4cccnc4)nn23)cc(OC)c1OC`, for which the inhibition stood at 72.2%. Still for that read-out and setting: the figure for `Nc1ccc(-c2nnc(-c3ccc(-c4ccccc4)cc3)o2)cc1` is 101%; for `C=CCSc1nc2c(c(=O)[nH]c(=O)n2C)n1CC` it is 72.8%; for `COc1ccc(OC)c(S(=O)(=O)Nc2ccc(O)c(Sc3ncn[nH]3)c2)c1` it is 89.7%.

In the case of `O=c1cc(CN2CCN(c3ccccc3)CC2)c2cc(O)c(-c3ccccc3)cc2o1`, the inhibition amounted to 96.1%. Still for that read-out and setting: the figure for `CCN(Cc1ccccc1)S(=O)(=O)c1ccc(C(=O)Nc2nnc(-c3ccccc3OC)o2)cc1` is 95.8%; for `CCOc1ccc(-n2c(=O)c3c4c(sc3n(CC(=O)NCc3ccco3)c2=O)CCC4)cc1` it is 89.9%. Still for that read-out and setting: with `CN1CSC2=C(C#N)C(c3cccc(OCc4ccccc4)c3)CC(=O)N2C1` (stereo not drawn) the figure was 89.7%.

Take `COC(=O)c1ccc2c(=O)[nH]c(CN3c4ccccc4CC3C)nc2c1` (stereo not drawn): the inhibition was determined as 62.3%. The same measure, in the same setting: the figure for `O=S(=O)(/N=S1/CC=CCN1S(=O)(=O)c1ccccc1)c1ccccc1` (stereo not drawn) is 69%; for `CCOc1ccccc1N1CSC2=C(C#N)C(c3c(OC)ccc4ccccc34)CC(=O)N2C1` (stereo not drawn) it is 92%.

`Cc1cccc(-n2c(N)c(C(=O)N3CCN(C)CC3)sc2=S)c1`: the inhibition was 41.7%. Same read-out and setting: the figure for `N#Cc1c(NC(=O)CN2CCN(S(=O)(=O)c3ccc4c(c3)OCCO4)CC2)sc2c1CCC2` is 81.9%; for `Cc1cccc(N2CSC3=C(C#N)C(c4ccc(C)o4)CC(=O)N3C2)c1` (stereo not drawn) it is 100%.

On to `O=C(Nc1ccc(N2CCOCC2)cc1)c1ccc2nc(-c3ccco3)c(-c3ccco3)nc2c1`, for which the inhibition is 93.4%. The same measure, in the same setting: the figure for `Cc1cc(C)c(C#N)c(=N)o1` is 83%. The same measure, in the same setting: the figure for `CCn1c2ccccc2c2nc3cc(S(=O)(=O)N4CCOCC4)ccc3nc21` is 88.9%; for `CCCCC(CC)Cn1c2nc3ccccc3nc2c2c(=N)oc(C)nc21` (stereo not drawn) it is 95.5%; for `CCOC(=O)c1c(C2COc3ccccc3O2)csc1NC(=O)c1ccco1` (stereo not drawn) it is 96.6%.

As for `Cc1cccc(Nc2n[nH]c(=S)s2)c1C`, the inhibition amounted to 96.9%. The same measure, in the same setting: with `C1=C(c2ccc(-c3ccccc3)cc2)Nc2ncnn2C1c1ccco1` (stereo not drawn) the figure was 48.6%; with `COc1ccc(N2CSC3=C(C#N)C(c4cc(OC)ccc4OC)CC(=O)N3C2)c(OC)c1` (stereo not drawn), 93.9%. As for `CCOc1cc(C2c3c(oc4cc(C)c(Cl)cc4c3=O)C(=O)N2Cc2ccco2)ccc1O` (stereo not drawn), the inhibition came out at 76.5%.

Consider `CCOc1cc(C2CC(=O)N3CN(C4CCCCC4)CSC3=C2C#N)ccc1O` (stereo not drawn), for which the inhibition amounted to 85.6%. Regarding `CSc1ccc(C2C(C#N)=C(N)Oc3c2ccc(=O)c2c(C)oc(C)c32)cc1` (stereo not drawn), the inhibition was determined as 77.4%.

As for `COc1ccc(-n2nc3cc(C)c(NC(=O)CC(C)C)cc3n2)cc1`, the inhibition came out at 93.4%.

`COc1cccc(OCC(=O)Nc2c(C(=O)Nc3ccc(OC)cc3OC)oc3ccccc23)c1`: the inhibition stood at 88.5%.

Consider `CCn1c(SCC(=O)c2ccc(O)c(O)c2)nnc1-c1ccccc1OC`, for which the inhibition was found to be 98.4%.

As to `COc1ccc(C2C(C#N)=C(N)N3C(=C2C#N)Sc2ccccc23)cc1` (stereo not drawn), the inhibition amounted to 92%. Still for that read-out and setting: the figure for `Cc1cc(C)c2c(=O)n(CC(=O)N3CCC(N4CCCCC4)CC3)sc2n1` is 60.1%.

As to `O=C(CCSCCC(=O)NCc1ccco1)NCc1ccco1`, the inhibition came to 98.4%.
